Test results: patent publication US10596267B2, “Method and process for quantitative evaluation of pharmacokinetics, therapeutic effects and safety of delivery of drug compounds to the inner ear for treatment of auditory disease” (The Charles Stark Draper Laboratory, Inc., priority 2016, dated 2020)

Tested on: guinea pig cochleae
Experiment: Reciprocating inner ear delivery of DNQX by micropump via cochleostomy; CAP and DPOAE hearing measurements
Details: pump infusion via cochleostomy at the basal turn
Method: Infusion began at t=0. A hearing threshold is the minimum sound pressure level (measured in dB SPL) required to generate a response. Data reported are threshold shifts, the change in threshold as compared to baseline. […] CAP amplitudes are also shown, with a legend that is on a log scale.
Reciprocating inner ear delivery and electronically-controlled dosing in a guinea pig model using a pump to infuse a drug via a cochleostomy (made at the basal turn) was evaluated. The drug reservoir was loaded with the glutamate receptor antagonist DNQX (which disrupts hair-cell-to-auditory-nerve synaptic transmission resulting in attenuation of compound action potentials (CAPs) generated in response to auditory stimuli). The molecular weight (232 Daltons) and physicochemical characteristics of DNQX make it a suitable model for evaluating the potential of other small molecule candidates for inner ear delivery. […] DPOAE responses from hair cells (which are not altered by DNQX) were monitored as a control for nonspecific effects.
In the experiments described herein, drug concentration was not measured directly, but was inferred by mapping the drug-mediated CAP inhibition along the length of the ST to calculate drug concentrations at a given location.

In the case of `O=[N+]([O-])c1cc2nc(O)c(O)nc2cc1[N+](=O)[O-]` [DNQX], the “DPOAE over time (control for nonspecific effects, mechanical damage or conductive hearing loss)” value is reported as “lack of alterations in DPOAE over time” and the “compound action potential (CAP) after initiation of drug delivery” value (tone-pip-evoked CAP) is reported as “reduction in CAP”.
